How the values were obtained:
[1] = biological target: T1, 5-hydroxytryptamine receptor 3A (Rattus norvegicus, UniProt P35563)
T1 sequence (P35563 whole entry): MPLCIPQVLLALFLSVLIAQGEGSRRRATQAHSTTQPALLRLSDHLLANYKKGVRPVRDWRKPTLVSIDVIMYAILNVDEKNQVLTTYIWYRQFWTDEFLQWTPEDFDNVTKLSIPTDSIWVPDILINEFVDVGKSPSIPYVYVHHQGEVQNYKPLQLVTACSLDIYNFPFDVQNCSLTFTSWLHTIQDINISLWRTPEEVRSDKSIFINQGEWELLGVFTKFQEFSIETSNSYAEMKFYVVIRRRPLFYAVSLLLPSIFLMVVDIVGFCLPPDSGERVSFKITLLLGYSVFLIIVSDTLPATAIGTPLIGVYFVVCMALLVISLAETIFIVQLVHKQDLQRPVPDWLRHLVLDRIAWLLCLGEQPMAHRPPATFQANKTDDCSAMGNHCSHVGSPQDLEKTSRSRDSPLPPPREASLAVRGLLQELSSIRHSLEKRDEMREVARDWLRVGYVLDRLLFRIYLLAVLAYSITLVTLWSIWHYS

[2] = biological target: 5-hydroxytryptamine receptor 2A (Rattus norvegicus, UniProt P14842)
[3] = biological target: 5-hydroxytryptamine receptor 6 (Rattus norvegicus, UniProt P31388)
[4] = biological target: 5-hydroxytryptamine receptor 1B (Rattus norvegicus, UniProt P28564)
[5] = biological target: 5-hydroxytryptamine receptor 1D (Rattus norvegicus, UniProt P28565)
[6] = biological target: 5-hydroxytryptamine receptor 7 (Rattus norvegicus, UniProt P32305)
Sequence of 5-hydroxytryptamine receptor 7 (P32305 whole entry): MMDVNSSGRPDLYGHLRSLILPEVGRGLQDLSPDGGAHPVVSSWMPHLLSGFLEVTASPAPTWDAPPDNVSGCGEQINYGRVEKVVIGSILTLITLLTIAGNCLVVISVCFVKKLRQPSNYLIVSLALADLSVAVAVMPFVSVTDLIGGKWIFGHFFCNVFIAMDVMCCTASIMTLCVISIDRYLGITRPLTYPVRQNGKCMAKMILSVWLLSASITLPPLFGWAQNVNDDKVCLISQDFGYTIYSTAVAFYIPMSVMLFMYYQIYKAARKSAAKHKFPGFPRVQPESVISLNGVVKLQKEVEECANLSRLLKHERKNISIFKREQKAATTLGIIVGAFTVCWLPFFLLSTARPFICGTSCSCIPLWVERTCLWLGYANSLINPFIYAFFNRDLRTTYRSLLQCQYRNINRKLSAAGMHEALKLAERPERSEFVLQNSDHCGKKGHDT

Sequence of 5-hydroxytryptamine receptor 1D (P28565 whole entry): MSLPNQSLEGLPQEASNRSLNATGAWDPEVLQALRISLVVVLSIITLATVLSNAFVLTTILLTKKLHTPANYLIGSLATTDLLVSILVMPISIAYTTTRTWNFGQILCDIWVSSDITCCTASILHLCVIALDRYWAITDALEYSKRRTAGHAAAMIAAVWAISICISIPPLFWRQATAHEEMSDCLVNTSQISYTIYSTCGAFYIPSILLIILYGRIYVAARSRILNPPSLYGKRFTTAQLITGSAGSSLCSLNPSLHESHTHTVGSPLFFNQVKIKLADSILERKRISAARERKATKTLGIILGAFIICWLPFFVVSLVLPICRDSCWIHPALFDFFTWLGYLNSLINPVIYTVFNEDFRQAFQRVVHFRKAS
Sequence of 5-hydroxytryptamine receptor 1B (P28564 whole entry): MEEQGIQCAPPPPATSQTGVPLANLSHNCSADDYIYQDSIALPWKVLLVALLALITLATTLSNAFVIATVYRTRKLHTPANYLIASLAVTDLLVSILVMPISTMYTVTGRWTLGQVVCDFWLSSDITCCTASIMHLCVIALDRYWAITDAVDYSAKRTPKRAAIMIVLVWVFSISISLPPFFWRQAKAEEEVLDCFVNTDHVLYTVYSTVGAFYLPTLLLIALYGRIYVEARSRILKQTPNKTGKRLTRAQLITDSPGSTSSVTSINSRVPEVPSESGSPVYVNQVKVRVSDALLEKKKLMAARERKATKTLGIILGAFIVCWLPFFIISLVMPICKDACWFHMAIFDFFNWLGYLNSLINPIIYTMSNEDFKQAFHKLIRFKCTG
Sequence of 5-hydroxytryptamine receptor 2A (P14842 whole entry): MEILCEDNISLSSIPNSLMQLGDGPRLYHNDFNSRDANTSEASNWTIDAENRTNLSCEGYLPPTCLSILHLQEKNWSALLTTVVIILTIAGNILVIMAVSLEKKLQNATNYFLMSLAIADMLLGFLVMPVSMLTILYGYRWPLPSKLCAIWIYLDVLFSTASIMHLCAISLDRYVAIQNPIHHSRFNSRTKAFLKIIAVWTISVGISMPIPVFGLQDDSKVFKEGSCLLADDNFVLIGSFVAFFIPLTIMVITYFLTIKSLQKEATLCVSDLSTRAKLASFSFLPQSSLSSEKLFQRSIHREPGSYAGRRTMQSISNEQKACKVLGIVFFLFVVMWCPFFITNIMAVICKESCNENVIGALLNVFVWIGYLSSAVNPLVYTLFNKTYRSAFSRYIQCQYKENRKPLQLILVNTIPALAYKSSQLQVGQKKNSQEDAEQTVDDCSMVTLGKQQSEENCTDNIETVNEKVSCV
Sequence of 5-hydroxytryptamine receptor 6 (P31388 whole entry): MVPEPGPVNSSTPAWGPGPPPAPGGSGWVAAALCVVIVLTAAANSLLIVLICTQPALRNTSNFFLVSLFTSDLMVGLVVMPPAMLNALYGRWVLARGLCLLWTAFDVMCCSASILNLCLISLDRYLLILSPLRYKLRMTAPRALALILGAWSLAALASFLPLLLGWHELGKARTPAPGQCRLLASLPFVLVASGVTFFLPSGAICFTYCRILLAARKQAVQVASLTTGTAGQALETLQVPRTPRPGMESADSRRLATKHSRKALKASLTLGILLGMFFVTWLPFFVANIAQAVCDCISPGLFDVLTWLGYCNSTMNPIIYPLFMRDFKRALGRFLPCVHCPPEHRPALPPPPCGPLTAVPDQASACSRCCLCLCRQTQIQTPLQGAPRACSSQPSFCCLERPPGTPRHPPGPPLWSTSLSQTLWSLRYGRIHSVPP

Question: With Clc1cccc(N2CCNCC2)c1 [mCPP] as the compound, how does the Ki [1] read?
Answer: 0.1 µM

Question: And the Ki [2]?
Answer: 0.2 µM

Question: What about the Ki [3] of the same compound?
Answer: 2.51 µM

Question: And the Ki [4]?
Answer: 0.251 µM

Question: What about the Ki [5] of the same compound?
Answer: 1.58 µM

Question: And the Ki [6]?
Answer: 0.251 µM

Source: BindingDB's records for doi:10.1046/j.1468-2982.2001.00157.x (Roche Bioscience, 2001)
